How the values were obtained:
[1] = biological target: T1, BRAF V600E (Homo sapiens, UniProt P15056, V600E); experiment: BRAF V600E biochemical kinase activity assay (AlphaScreen, biotin-MEK1 substrate); conditions: BRAF V600E biochemical inhibitory activity
T1 construct: purchased Upstate Biotechnology

[2] = test system: B9 (HRAS Q61L) cell line; experiment: B9 P-ERK cell activation assay (AlphaScreen); assay type: cell-based, mouse; conditions: Mus musculus; P-ERK cell activation, B9; numeric bounds; read-out: Cell activity (EC50 μM) B9_pERK
Outline: (§1)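 Mouse B9 (HRAS-driven skin SCC) or human IPC-298 melanoma cells treated with an 8-point compound titration for one hour at 37° C., then lysed. ERK1/2 phosphorylation at Thr202/Tyr204 read by AlphaScreen with total-ERK and phospho-ERK antibodies.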

[3] = test system: IPC-298 (NRAS Q61L) cell line; experiment: IPC-298 P-ERK cell activation assay (AlphaScreen); assay type: cell-based, human; conditions: Homo sapiens; P-ERK cell activation, IPC-298; numeric bounds; read-out: Cell activity (EC50 μM) IPC-298_P-ERK
Outline: as §1

[4] = test system: A375 (BRAF V600E) cell line; experiment: A375 P-ERK inhibition assay (AlphaScreen); assay type: cell-based, human; conditions: Homo sapiens, A-375; A375_P-ERK
Outline: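 A375 cells treated with 8-point compound titration for 1 h at 37° C, then lysed. ERK1/2 Thr202/Tyr204 phosphorylation measured by AlphaScreen, using biotinylated total-ERK antibody on donor beads and phospho-specific antibody on acceptor beads.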

T1 sequence (P15056 whole entry V600E): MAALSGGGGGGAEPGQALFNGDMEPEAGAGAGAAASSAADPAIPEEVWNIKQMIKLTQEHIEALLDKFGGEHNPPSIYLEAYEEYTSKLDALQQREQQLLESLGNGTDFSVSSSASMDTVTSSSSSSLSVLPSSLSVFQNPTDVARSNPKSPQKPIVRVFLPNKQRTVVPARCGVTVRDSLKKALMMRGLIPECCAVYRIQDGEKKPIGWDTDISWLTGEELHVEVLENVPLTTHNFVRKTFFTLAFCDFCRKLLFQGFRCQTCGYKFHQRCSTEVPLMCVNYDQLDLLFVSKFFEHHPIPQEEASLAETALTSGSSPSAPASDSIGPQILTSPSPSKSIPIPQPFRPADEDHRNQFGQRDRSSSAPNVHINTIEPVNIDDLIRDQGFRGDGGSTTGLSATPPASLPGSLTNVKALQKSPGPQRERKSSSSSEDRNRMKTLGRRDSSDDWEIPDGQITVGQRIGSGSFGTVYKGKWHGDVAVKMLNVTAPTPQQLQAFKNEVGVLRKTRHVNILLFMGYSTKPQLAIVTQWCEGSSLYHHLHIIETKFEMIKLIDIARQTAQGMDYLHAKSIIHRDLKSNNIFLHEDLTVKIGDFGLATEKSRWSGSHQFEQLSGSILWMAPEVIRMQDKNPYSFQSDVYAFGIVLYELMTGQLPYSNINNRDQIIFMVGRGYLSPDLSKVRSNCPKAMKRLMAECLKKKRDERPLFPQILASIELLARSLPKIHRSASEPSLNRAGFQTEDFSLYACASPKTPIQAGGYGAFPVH

## CCN(CC)S(=O)(=O)Nc1ccc(F)c(C(=O)c2c[nH]c3ncnc(NC(C)C)c23)c1F [P-2042, 5-[3-(diethylsulfamoylamino)-2,6-difluoro-benzoyl]-4-(isopropylamino)-7H-pyrrolo[2,3-d]pyrimidine]
[1]
  IC50: 0.0001 to 1 µM
[2]
  EC50: > 10 µM
[3]
  EC50: > 10 µM
[4]
  IC50: 0.0001 to 1 µM

## CC(C)Nc1ncnc2[nH]cc(C(=O)c3c(F)ccc(NS(=O)(=O)C4CCC4)c3F)c12 [P-2043, N-[2,4-difluoro-3-[4-(isopropylamino)-7H-pyrrolo[2,3-d]pyrimidine-5-carbonyl]phenyl]cyclobutanesulfonamide]
[1]
  IC50: 1 to 10 µM
[2]
  EC50: > 10 µM
[3]
  EC50: > 10 µM
[4]
  IC50: 1 to 10 µM

## CC(C)Nc1ncnc2[nH]cc(C(=O)c3c(F)ccc(NS(=O)(=O)N4CCOCC4)c3F)c12 [P-2044, N-[2,4-difluoro-3-[4-(isopropylamino)-7H-pyrrolo[2,3-d]pyrimidine-5-carbonyl]phenyl]morpholine-4-sulfonamide]
[1]
  IC50: 0.0001 to 1 µM
[2]
  EC50: > 10 µM
[3]
  EC50: > 10 µM
[4]
  IC50: 0.0001 to 1 µM

## CC(C)Nc1ncnc2[nH]cc(C(=O)c3c(F)ccc(NS(=O)(=O)N(C)C)c3F)c12 [P-2045, 5-[3-(dimethylsulfamoylamino)-2,6-difluoro-benzoyl]-4-(isopropylamino)-7H-pyrrolo[2,3-d]pyrimidine]
[1]
  IC50: 0.0001 to 1 µM
[2]
  EC50: > 10 µM
[3]
  EC50: > 10 µM
[4]
  IC50: 0.0001 to 1 µM

## O=C(c1c(F)ccc(NS(=O)(=O)C2CCCCC2)c1F)c1c[nH]c2ncnc(NCC3CC3)c12 [P-2049, N-[3-[4-(cyclopropylmethylamino)-7H-pyrrolo[2,3-d]pyrimidine-5-carbonyl]-2,4-difluoro-phenyl]cyclohexanesulfonamide]
[1]
  IC50: 0.0001 to 1 µM
[2]
  EC50: > 10 µM
[3]
  EC50: > 10 µM
[4]
  IC50: 0.0001 to 1 µM

## CCN(CC)S(=O)(=O)Nc1ccc(F)c(C(=O)c2c[nH]c3ncnc(NCC4CC4)c23)c1F [P-2052, 4-(cyclopropylmethylamino)-5-[3-(diethylsulfamoylamino)-2,6-difluoro-benzoyl]-7H-pyrrolo[2,3-d]pyrimidine]
[1]
  IC50: 0.0001 to 1 µM
[2]
  EC50: > 10 µM
[3]
  EC50: > 10 µM
[4]
  IC50: 0.0001 to 1 µM

## O=C(c1c(F)ccc(NS(=O)(=O)N2CCOCC2)c1F)c1c[nH]c2ncnc(NCC3CC3)c12 [P-2054, N-[3-[4-(cyclopropylmethylamino)-7H-pyrrolo[2,3-d]pyrimidine-5-carbonyl]-2,4-difluoro-phenyl]morpholine-4-sulfonamide]
[1]
  IC50: 0.0001 to 1 µM
[2]
  EC50: > 10 µM
[3]
  EC50: > 10 µM
[4]
  IC50: 0.0001 to 1 µM

## CCC(C)S(=O)(=O)Nc1ccc(F)c(C(=O)c2c[nH]c3ncnc(NCC4CC4)c23)c1F (stereo not shown) [P-2056, N-[3-[4-(cyclopropylmethylamino)-7H-pyrrolo[2,3-d]pyrimidine-5-carbonyl]-2,4-difluoro-phenyl]butane-2-sulfonamide]
[1]
  IC50: 0.0001 to 1 µM
[2]
  EC50: > 10 µM
[3]
  EC50: > 10 µM
[4]
  IC50: 0.0001 to 1 µM

## O=C(c1cccc(NS(=O)(=O)N2CCCC2)c1F)c1c[nH]c2ncnc(NCC3CC3)c12 [P-2057, N-[3-[4-(cyclopropylmethylamino)-7H-pyrrolo[2,3-d]pyrimidine-5-carbonyl]-2-fluoro-phenyl]pyrrolidine-1-sulfonamide]
[1]
  IC50: 0.0001 to 1 µM
[2]
  EC50: > 10 µM
[3]
  EC50: > 10 µM
[4]
  IC50: 0.0001 to 1 µM

## O=C(c1c(F)ccc(NS(=O)(=O)C2CCOCC2)c1F)c1c[nH]c2ncnc(NCC3CC3)c12 [P-2058, N-[3-[4-(cyclopropylmethylamino)-7H-pyrrolo[2,3-d]pyrimidine-5-carbonyl]-2,4-difluoro-phenyl]tetrahydropyran-4-sulfonamide]
[1]
  IC50: 0.0001 to 1 µM
[2]
  EC50: > 10 µM
[3]
  EC50: > 10 µM
[4]
  IC50: 0.0001 to 1 µM

## CCN(C)S(=O)(=O)Nc1ccc(F)c(C(=O)c2c[nH]c3ncnc(NCC4CC4)c23)c1F [P-2061, 4-(cyclopropylmethylamino)-5-[3-[[ethyl(methyl)sulfamoyl]amino]-2,6-difluoro-benzoyl]-7H-pyrrolo[2,3-d]pyrimidine]
[1]
  IC50: 0.0001 to 1 µM
[2]
  EC50: > 10 µM
[3]
  EC50: > 10 µM
[4]
  IC50: 0.0001 to 1 µM

## CCN(C)S(=O)(=O)Nc1cccc(C(=O)c2c[nH]c3ncnc(NC)c23)c1F [P-2062, 5-[3-[[ethyl(methyl)sulfamoyl]amino]-2-fluoro-benzoyl]-4-(methylamino)-7H-pyrrolo[2,3-d]pyrimidine]
[1]
  IC50: 0.0001 to 1 µM
[2]
  EC50: > 10 µM
[3]
  EC50: > 10 µM
[4]
  IC50: 0.0001 to 1 µM

## CCN(C)S(=O)(=O)Nc1cccc(C(=O)c2c[nH]c3ncnc(NC4CC4)c23)c1F [P-2063, 4-(cyclopropylamino)-5-[3-[[ethyl(methyl)sulfamoyl]amino]-2-fluoro-benzoyl]-7H-pyrrolo[2,3-d]pyrimidine]
[1]
  IC50: 0.0001 to 1 µM
[2]
  EC50: > 10 µM
[3]
  EC50: > 10 µM
[4]
  IC50: 0.0001 to 1 µM

## CCN(C)S(=O)(=O)Nc1cccc(C(=O)c2c[nH]c3ncnc(NCC4CC4)c23)c1F [P-2064, 4-(cyclopropylmethylamino)-5-[3-[[ethyl(methyl)sulfamoyl]amino]-2-fluoro-benzoyl]-7H-pyrrolo[2,3-d]pyrimidine]
[1]
  IC50: 0.0001 to 1 µM
[2]
  EC50: > 10 µM
[3]
  EC50: > 10 µM
[4]
  IC50: 0.0001 to 1 µM

## CCN(C)S(=O)(=O)Nc1cccc(C(=O)c2c[nH]c3ncnc(NCC(F)(F)F)c23)c1F [P-2065, 5-[3-[[ethyl(methyl)sulfamoyl]amino]-2-fluoro-benzoyl]-4-(2,2,2-trifluoroethylamino)-7H-pyrrolo[2,3-d]pyrimidine]
[1]
  IC50: 0.0001 to 1 µM
[2]
  EC50: > 10 µM
[3]
  EC50: > 10 µM
[4]
  IC50: 0.0001 to 1 µM

## CCCNc1ncnc2[nH]cc(C(=O)c3cccc(NS(=O)(=O)N(C)CC)c3F)c12 [P-2066, 5-[3-[[ethyl(methyl)sulfamoyl]amino]-2-fluoro-benzoyl]-4-(propylamino)-7H-pyrrolo[2,3-d]pyrimidine]
[1]
  IC50: 0.0001 to 1 µM
[2]
  EC50: > 10 µM
[3]
  EC50: > 10 µM
[4]
  IC50: 0.0001 to 1 µM

## CCN(C)S(=O)(=O)Nc1cccc(C(=O)c2c[nH]c3ncnc(NC(C)C)c23)c1F [P-2067, 5-[3-[[ethyl(methyl)sulfamoyl]amino]-2-fluoro-benzoyl]-4-(isopropylamino)-7H-pyrrolo[2,3-d]pyrimidine]
[1]
  IC50: 0.0001 to 1 µM
[2]
  EC50: > 10 µM
[3]
  EC50: > 10 µM
[4]
  IC50: 0.0001 to 1 µM

## CCN(C)S(=O)(=O)Nc1cccc(C(=O)c2c[nH]c3ncnc(NC4CCC(F)(F)CC4)c23)c1F [P-2068, 4-[(4,4-difluorocyclohexyl)amino]-5-[3-[[ethyl(methyl)sulfamoyl]amino]-2-fluoro-benzoyl]-7H-pyrrolo[2,3-d]pyrimidine]
[1]
  IC50: 0.0001 to 1 µM
[2]
  EC50: > 10 µM
[3]
  EC50: > 10 µM
[4]
  IC50: 0.0001 to 1 µM

## CCN(C)S(=O)(=O)Nc1cccc(C(=O)c2c[nH]c3ncnc(NCC(C)(C)O)c23)c1F [P-2069, 5-[3-[[ethyl(methyl)sulfamoyl]amino]-2-fluoro-benzoyl]-4-[(2-hydroxy-2-methyl-propyl)amino]-7H-pyrrolo[2,3-d]pyrimidine]
[1]
  IC50: 0.0001 to 1 µM
[2]
  EC50: > 10 µM
[3]
  EC50: > 10 µM
[4]
  IC50: 0.0001 to 1 µM

## O=C(c1cccc(NS(=O)(=O)N2CCCC2)c1F)c1c[nH]c2ncnc(NC3CC3)c12 [P-2070, N-[3-[4-(cyclopropylamino)-7H-pyrrolo[2,3-d]pyrimidine-5-carbonyl]-2-fluoro-phenyl]pyrrolidine-1-sulfonamide]
[1]
  IC50: 0.0001 to 1 µM
[2]
  EC50: > 10 µM
[3]
  EC50: > 10 µM
[4]
  IC50: 0.0001 to 1 µM

## CNc1ncnc2[nH]cc(C(=O)c3cccc(NS(=O)(=O)N4CCCC4)c3F)c12 [P-2071, N-[2-fluoro-3-[4-(methylamino)-7H-pyrrolo[2,3-d]pyrimidine-5-carbonyl]phenyl]pyrrolidine-1-sulfonamide]
[1]
  IC50: 0.0001 to 1 µM
[2]
  EC50: > 10 µM
[3]
  EC50: > 10 µM
[4]
  IC50: 0.0001 to 1 µM

## CCN(C)S(=O)(=O)Nc1cccc(C(=O)c2c[nH]c3ncnc(NC4CCC4)c23)c1F [P-2072, 4-(cyclobutylamino)-5-[3-[[ethyl(methyl)sulfamoyl]amino]-2-fluoro-benzoyl]-7H-pyrrolo[2,3-d]pyrimidine]
[1]
  IC50: 0.0001 to 1 µM
[2]
  EC50: > 10 µM
[3]
  EC50: > 10 µM
[4]
  IC50: 0.0001 to 1 µM

## CCN(C)S(=O)(=O)Nc1cccc(C(=O)c2c[nH]c3ncnc(NCCOC)c23)c1F [P-2073, 5-[3-[[ethyl(methyl)sulfamoyl]amino]-2-fluoro-benzoyl]-4-(2-methoxyethylamino)-7H-pyrrolo[2,3-d]pyrimidine]
[1]
  IC50: 0.0001 to 1 µM
[2]
  EC50: > 10 µM
[3]
  EC50: > 10 µM
[4]
  IC50: 0.0001 to 1 µM

## CCN(C)S(=O)(=O)Nc1cccc(C(=O)c2c[nH]c3ncnc(NC[C@@H]4CCCO4)c23)c1F [P-2074, 5-[3-[[ethyl(methyl)sulfamoyl]amino]-2-fluoro-benzoyl]-4-[[(2S)-tetrahydrofuran-2-yl]methylamino]-7H-pyrrolo[2,3-d]pyrimidine]
[1]
  IC50: 0.0001 to 1 µM
[2]
  EC50: > 10 µM
[3]
  EC50: > 10 µM
[4]
  IC50: 0.0001 to 1 µM

## CCN(C)S(=O)(=O)Nc1cccc(C(=O)c2c[nH]c3ncnc(NC4CCOCC4)c23)c1F [P-2075, 5-[3-[[ethyl(methyl)sulfamoyl]amino]-2-fluoro-benzoyl]-4-(tetrahydropyran-4-ylamino)-7H-pyrrolo[2,3-d]pyrimidine]
[1]
  IC50: 0.0001 to 1 µM
[2]
  EC50: > 10 µM
[3]
  EC50: > 10 µM
[4]
  IC50: 0.0001 to 1 µM
